Measurements: patent publication US6972319B1, “Pituitary adenylate cyclase activating peptide (PACAP)receptor 3 (R3) agonists and their pharmacological methods of use” (priority 1999, dated 2005)
No end group written: not given here.

How the values were obtained:
PACAP-R2 = target: T1, PACAP-R2 (Homo sapiens, UniProt P32241); assay: Cyclic AMP SPA on CHO cells transfected with PACAP-R2; format: cell-based; details: cAMP SPA, concentration at which 50% of maximum PACAP27 activity is achieved, NA = no detectable activities, read-out: R2 EC50
T1 construct: expressed in transfected cells; host or cells: CHO cells
T1 sequence (P32241 31-457): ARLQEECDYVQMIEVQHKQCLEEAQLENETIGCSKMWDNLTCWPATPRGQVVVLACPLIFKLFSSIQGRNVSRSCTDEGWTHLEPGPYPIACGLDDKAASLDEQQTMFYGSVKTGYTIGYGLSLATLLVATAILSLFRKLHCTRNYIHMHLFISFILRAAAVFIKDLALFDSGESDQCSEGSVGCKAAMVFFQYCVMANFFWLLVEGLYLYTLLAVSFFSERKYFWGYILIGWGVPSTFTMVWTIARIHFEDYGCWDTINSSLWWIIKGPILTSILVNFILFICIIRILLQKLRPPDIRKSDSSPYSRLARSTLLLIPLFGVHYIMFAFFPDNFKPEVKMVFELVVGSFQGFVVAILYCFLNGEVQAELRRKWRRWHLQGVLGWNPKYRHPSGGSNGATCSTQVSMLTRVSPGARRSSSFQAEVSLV
Protocol: (§1) CHO cells expressing the PACAP R3 were plated in 96-well plates (Costar) at 8×10^4 cell/well and grown at 37 C. for 24 hours in α MEM+nucleosides+glutamine (Giobco BRL), 10% FBS, 100 μg/ml Pen/Strep, 0.3 mg/ml glutamine, 1 mM HEPES, 0.5 mg/ml Geneticin (Gibco BRL). The media was removed and the plates were washed with PBS. The cells were incubated with a peptide, in Hepes-PBS-BSA with 0.4 mg/mlSoybean Trypsin Inhibitor, 0.5 mg/ml Bacitracin, 100 uM IBMX, for 15 min at 37 C. Cyclic AMP in the cell extracts was quantitated using the cAMP SPA direct screening assay system (Amersham Pharmacia Biotech Inc, Piscataway, N.J.,). The peptides shown in Table 3 were assayed for cAMP activity.
(§2) EC50 is defined as the concentration of the polypeptide at which 50% of maximum PACAP27 activity is achieved. “NA” denotes no detectable activities. “R3 Selectivity” is derived from the ratio of EC50 at R2 versus EC50 at R3.

PACAP-R3 = target: T2, PACAP-R3 (Homo sapiens, UniProt P41587); assay: Cyclic AMP SPA on CHO cells expressing PACAP R3; format: cell-based; set-up: expressed in transfected cells; host or cells: CHO cells (Geneticin selection); details: for EC50: cAMP SPA, CHO cells transfected with PACAP-R3, concentration at which 50% of maximum PACAP27 activity is achieved, NA = no detectable activities, read-out: R3 EC50; for R3 Selectivity: ratio of EC50 at R2 versus EC50 at R3
T2 sequence (P41587 24-438): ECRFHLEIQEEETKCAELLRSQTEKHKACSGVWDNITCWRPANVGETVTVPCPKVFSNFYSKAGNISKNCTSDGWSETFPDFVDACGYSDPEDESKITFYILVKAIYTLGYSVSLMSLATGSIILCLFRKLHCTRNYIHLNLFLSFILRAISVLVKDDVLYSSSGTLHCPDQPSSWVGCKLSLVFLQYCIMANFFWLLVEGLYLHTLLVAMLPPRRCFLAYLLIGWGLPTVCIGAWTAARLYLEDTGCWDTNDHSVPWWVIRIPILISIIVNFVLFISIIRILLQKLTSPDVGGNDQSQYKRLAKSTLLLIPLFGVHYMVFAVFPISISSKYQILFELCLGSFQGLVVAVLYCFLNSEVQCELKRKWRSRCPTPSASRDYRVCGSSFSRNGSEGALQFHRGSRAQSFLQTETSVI
Protocol: as §1, §2

Row | Molecule | EC50 (PACAP-R2) | EC50 (PACAP-R3) | R3 Selectivity (PACAP-R3)
1 | HSDAVFTDNYTRLRKQMAVKKYLNDILN [Peptide R3P48] | 1 nM | 0.13 nM | 8
2 | HSDAVFTDQYTRLRKQLAAHKYLNTIKNKRY [Peptide R3P75] | > 150 nM | 0.3 nM | >500
3 | HSDAVFTDNYTRLRKQMAAKKYLNSIKKK [Peptide R3P54] | > 100 nM | 0.5 nM | >200
4 | HSDAVFTDNYTRLRKQVAAKKYLNSIKK [Peptide R3P62] | 180 nM | 1.8 nM | 100
5 | HSDAVFTDNYTRLRKQMAAKKYLNSIPNKR [Peptide R3P126] | 200 nM | 1 nM | 200
6 | HSDGIFTDSYSRYEKQMAVKKYLAAVL-NH2 [PAC14] | 110 nM | 1.6 nM | 70
7 | HSDAVFTDNYTRLRKQMAAKKYLNSIKNQR [Peptide R3P146] | 30 nM | 0.3 nM | 100
8 | HSDGIFTDSYKRYRKQMAVKKYLAAVL-NH2 [PAC11] | 10 nM | 140 nM | 0.1
9 | HSDAVFTDNYTRLRKQLAVKKYLNDIKNGGT [Peptide R3P29] | > 100 nM | 0.5 nM | >200
10 | HSDAVFTDNYTRLRKQMAAKKYLNSIKNIR [Peptide R3P141] | 20 nM | 0.2 nM | 100
11 | CC[C@H](C)[C@H](NC(=O)[C@H](CO)NC(=O)[C@H](CC(N)=O)NC(=O)[C@H](CC(C)C)NC(=O)[C@H](Cc1ccc(O)cc1)NC(=O)[C@H](CCCCN)NC(=O)[C@H](CCCCN)NC(=O)[C@H](C)NC(=O)[C@H](C)NC(=O)[C@H](CCSC)NC(=O)[C@H](CCC(N)=O)NC(=O)[C@H](CCCCN)NC(=O)[C@H](CCCNC(=N)N)NC(=O)[C@H](CC(C)C)NC(=O)[C@H](CCCNC(=N)N)NC(=O)[C@@H](NC(=O)[C@H](Cc1ccc(O)cc1)NC(=O)[C@H](CC(N)=O)NC(=O)[C@H](CC(=O)O)NC(=O)[C@@H](NC(=O)[C@H](Cc1ccccc1)NC(=O)[C@@H](NC(=O)[C@H](C)NC(=O)[C@H](CC(=O)O)NC(=O)[C@H](CO)NC(=O)[C@@H](N)Cc1c[nH]cn1)C(C)C)[C@@H](C)O)[C@@H](C)O)C(=O)N[C@@H](CCCCN)C(=O)N[C@@H](CC(N)=O)C(=O)N[C@@H](CCCCN)C(=O)N[C@@H](CO)C(=O)O [Peptide R3P167] | 300 nM | – | –
12 | CC[C@H](C)[C@H](NC(=O)[C@H](CO)NC(=O)[C@H](CC(N)=O)NC(=O)[C@H](CC(C)C)NC(=O)[C@H](Cc1ccc(O)cc1)NC(=O)[C@H](CCCCN)NC(=O)[C@H](CCCCN)NC(=O)[C@@H](NC(=O)[C@H](C)NC(=O)[C@H](CCSC)NC(=O)[C@H](CCC(N)=O)NC(=O)[C@H](CCCCN)NC(=O)[C@H](CCCNC(=N)N)NC(=O)[C@H](CC(C)C)NC(=O)[C@H](CCCNC(=N)N)NC(=O)[C@@H](NC(=O)[C@H](Cc1ccc(O)cc1)NC(=O)[C@H](CC(N)=O)NC(=O)[C@H](CC(=O)O)NC(=O)[C@@H](NC(=O)[C@H](Cc1ccccc1)NC(=O)[C@@H](NC(=O)[C@H](C)NC(=O)[C@H](CC(=O)O)NC(=O)[C@H](CO)NC(=O)[C@@H](N)Cc1c[nH]cn1)C(C)C)[C@@H](C)O)[C@@H](C)O)[C@@H](C)O)C(=O)N[C@@H](CCCCN)C(=O)N[C@@H](CC(N)=O)C(=O)N[C@@H](CCCCN)C(=O)N[C@@H](CCCNC(=N)N)C(=O)O [Peptide R3P112] | 4 nM | – | –
13 | CC[C@H](C)[C@H](NC(=O)[C@H](CO)NC(=O)[C@H](CC(N)=O)NC(=O)[C@H](CC(C)C)NC(=O)[C@H](Cc1ccc(O)cc1)NC(=O)[C@H](CCCCN)NC(=O)[C@H](CCCCN)NC(=O)[C@H](C)NC(=O)[C@H](C)NC(=O)[C@H](CCSC)NC(=O)[C@H](CCC(N)=O)NC(=O)[C@H](CCCCN)NC(=O)[C@H](CCCNC(=N)N)NC(=O)[C@H](CC(C)C)NC(=O)[C@H](CCCNC(=N)N)NC(=O)[C@@H](NC(=O)[C@H](Cc1ccc(O)cc1)NC(=O)[C@H](CC(N)=O)NC(=O)[C@H](CC(=O)O)NC(=O)[C@@H](NC(=O)[C@H](Cc1ccccc1)NC(=O)[C@@H](NC(=O)[C@H](C)NC(=O)[C@H](CC(=O)O)NC(=O)[C@H](CO)NC(=O)[C@@H](N)Cc1c[nH]cn1)C(C)C)[C@@H](C)O)[C@@H](C)O)C(=O)N[C@@H](CCCCN)C(=O)N[C@@H](CC(N)=O)C(=O)N[C@@H](CCCCN)C(=O)N[C@@H](CCC(N)=O)C(=O)O [Peptide R3P166] | 50 nM | – | –
14 | CC[C@H](C)[C@H](NC(=O)[C@H](CO)NC(=O)[C@H](CC(N)=O)NC(=O)[C@H](CC(C)C)NC(=O)[C@H](Cc1ccc(O)cc1)NC(=O)[C@H](CCCCN)NC(=O)[C@H](CCCCN)NC(=O)[C@H](C)NC(=O)[C@H](C)NC(=O)[C@H](CCSC)NC(=O)[C@H](CCC(N)=O)NC(=O)[C@H](CCCCN)NC(=O)[C@H](CCCNC(=N)N)NC(=O)[C@H](CC(C)C)NC(=O)[C@H](CCCNC(=N)N)NC(=O)[C@@H](NC(=O)[C@H](Cc1ccc(O)cc1)NC(=O)[C@H](CC(N)=O)NC(=O)[C@H](CC(=O)O)NC(=O)[C@@H](NC(=O)[C@H](Cc1ccccc1)NC(=O)[C@@H](NC(=O)[C@H](C)NC(=O)[C@H](CC(=O)O)NC(=O)[C@H](CO)NC(=O)[C@@H](N)Cc1c[nH]cn1)C(C)C)[C@@H](C)O)[C@@H](C)O)C(=O)N[C@@H](CCCCN)C(=O)N[C@@H](CC(N)=O)C(=O)N[C@@H](CCCCN)C(=O)N[C@@H](Cc1c[nH]c2ccccc12)C(=O)O [Peptide R3P170] | 20 nM | – | –
15 | CC[C@H](C)[C@H](NC(=O)[C@H](CO)NC(=O)[C@H](CC(N)=O)NC(=O)[C@H](CC(C)C)NC(=O)[C@H](Cc1ccc(O)cc1)NC(=O)[C@H](CCCCN)NC(=O)[C@H](CCCCN)NC(=O)[C@H](CCSC)NC(=O)[C@H](C)NC(=O)[C@H](CCSC)NC(=O)[C@H](CCC(N)=O)NC(=O)[C@H](CCCCN)NC(=O)[C@H](CCCNC(=N)N)NC(=O)[C@H](CC(C)C)NC(=O)[C@H](CCCNC(=N)N)NC(=O)[C@@H](NC(=O)[C@H](Cc1ccc(O)cc1)NC(=O)[C@H](CC(N)=O)NC(=O)[C@H](CC(=O)O)NC(=O)[C@@H](NC(=O)[C@H](Cc1ccccc1)NC(=O)[C@@H](NC(=O)[C@H](C)NC(=O)[C@H](CC(=O)O)NC(=O)[C@H](CO)NC(=O)[C@@H](N)Cc1c[nH]cn1)C(C)C)[C@@H](C)O)[C@@H](C)O)C(=O)N[C@@H](CCCCN)C(=O)N[C@@H](CC(N)=O)C(=O)N[C@@H](CCCCN)C(=O)N[C@@H](CCCNC(=N)N)C(=O)O [Peptide R3P106] | 2 nM | – | –
16 | CC[C@H](C)[C@H](NC(=O)[C@H](CO)NC(=O)[C@H](CC(N)=O)NC(=O)[C@H](CC(C)C)NC(=O)[C@H](Cc1ccc(O)cc1)NC(=O)[C@H](CCCCN)NC(=O)[C@H](CCCCN)NC(=O)[C@H](C)NC(=O)[C@H](C)NC(=O)[C@H](CCSC)NC(=O)[C@H](CCC(N)=O)NC(=O)[C@H](CCCCN)NC(=O)[C@H](CCCNC(=N)N)NC(=O)[C@H](CC(C)C)NC(=O)[C@H](CCCNC(=N)N)NC(=O)[C@@H](NC(=O)[C@H](Cc1ccc(O)cc1)NC(=O)[C@H](CC(N)=O)NC(=O)[C@H](CC(=O)O)NC(=O)[C@@H](NC(=O)[C@H](Cc1ccccc1)NC(=O)[C@@H](NC(=O)[C@H](C)NC(=O)[C@H](CC(=O)O)NC(=O)[C@H](CO)NC(=O)[C@@H](N)Cc1c[nH]cn1)C(C)C)[C@@H](C)O)[C@@H](C)O)C(=O)N[C@H](C(=O)N[C@@H](CC(N)=O)C(=O)N[C@@H](CCCCN)C(=O)N[C@@H](CCCNC(=N)N)C(=O)O)[C@@H](C)CC [Peptide R3P123] | 5 nM | – | –
17 | HSDAVFTDNYTRLRKQLAAKKYLNDIKNGGT [Peptide R3P24] | 45 nM | – | –
